Each structure is given as a SMILES string.

This passage reports inhibition results from patent publication US8791132B2, “Compounds and methods for treatment of hypertension” (Medivation Technologies, Inc., priority 2011, dated 2014).

The target in assay [1] is T1, rat adrenergic α1B receptor (Rattus norvegicus, UniProt P15823).
T1 construct: rat adrenergic α1B receptor obtained from Wistar Rat liver; from tissue; host or cells: Wistar rat liver
T1 sequence (P15823 1-515): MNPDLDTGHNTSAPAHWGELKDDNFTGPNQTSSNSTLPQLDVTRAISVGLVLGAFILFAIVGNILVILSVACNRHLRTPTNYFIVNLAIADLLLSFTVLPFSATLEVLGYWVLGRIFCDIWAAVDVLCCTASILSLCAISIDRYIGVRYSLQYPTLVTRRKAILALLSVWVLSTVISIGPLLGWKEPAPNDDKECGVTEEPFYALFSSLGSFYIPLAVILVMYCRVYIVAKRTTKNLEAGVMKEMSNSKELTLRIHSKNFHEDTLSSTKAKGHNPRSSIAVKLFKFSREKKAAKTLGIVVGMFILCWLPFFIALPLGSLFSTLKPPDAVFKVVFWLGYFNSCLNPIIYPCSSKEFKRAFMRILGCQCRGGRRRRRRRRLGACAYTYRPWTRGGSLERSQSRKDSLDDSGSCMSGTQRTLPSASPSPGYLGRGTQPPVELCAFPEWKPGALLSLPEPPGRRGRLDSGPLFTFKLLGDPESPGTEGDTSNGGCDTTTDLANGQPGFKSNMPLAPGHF
Nature of the assay: Radioligand binding, adrenergic α1B ([3H]Prazosin). The settings on record: 0.1 μM compound; read-out: Percentage inhibition of ligand binding, Adrenergic α1B. The method in brief:
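Specific binding, taken as total minus that remaining with 10 μM phentolamine, is measured after filtration and counting. Rat liver receptor preparation and 0.25 nM [3H]prazosin are incubated with compound in 50 mM Tris-HCl (pH 7.4, 0.5 mM EDTA) at 25° C for 60 min. Activity is reported as percent inhibition.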

Assay [2] deals with T2, human recombinant adrenergic α2B receptor (Homo sapiens, UniProt P18089).
T2 construct: expressed in transfected cells; host or cells: CHO-K1
T2 sequence (P18089 1-450): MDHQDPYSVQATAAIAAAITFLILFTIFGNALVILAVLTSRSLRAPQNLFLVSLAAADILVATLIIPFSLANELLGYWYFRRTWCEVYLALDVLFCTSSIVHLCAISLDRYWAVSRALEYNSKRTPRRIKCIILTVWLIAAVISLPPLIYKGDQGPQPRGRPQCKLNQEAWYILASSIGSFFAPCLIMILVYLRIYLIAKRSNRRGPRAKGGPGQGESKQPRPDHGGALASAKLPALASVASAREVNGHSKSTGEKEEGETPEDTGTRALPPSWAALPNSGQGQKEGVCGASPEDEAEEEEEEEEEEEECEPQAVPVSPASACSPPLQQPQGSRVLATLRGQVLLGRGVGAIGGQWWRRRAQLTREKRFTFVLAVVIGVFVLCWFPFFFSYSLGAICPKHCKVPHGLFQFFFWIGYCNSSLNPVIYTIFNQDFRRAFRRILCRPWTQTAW
Nature of the assay: Radioligand binding, adrenergic α2B ([3H]Rauwolscine). The following applies: 0.1 μM compound; read-out: Percentage inhibition of ligand binding, Adrenergic α2B. The method in brief: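 Receptor expressed in CHO-K1 cells, assayed in 50 mM Tris-HCl pH 7.4 with 12.5 mM MgCl2, 1 mM EDTA and 0.2% BSA. Compounds were incubated with 2.5 nM [3H]Rauwolscine for 60 min at 25° C; 10 μM Prazosin defined non-specific binding. Filter counting gave percent inhibition of specific binding.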

Assay [3] deals with T3, human recombinant adrenergic α2A receptor (Homo sapiens, UniProt P08913).
T3 construct: expressed in transfected cells; host or cells: insect Sf9 cells
T3 sequence (P08913 1-465): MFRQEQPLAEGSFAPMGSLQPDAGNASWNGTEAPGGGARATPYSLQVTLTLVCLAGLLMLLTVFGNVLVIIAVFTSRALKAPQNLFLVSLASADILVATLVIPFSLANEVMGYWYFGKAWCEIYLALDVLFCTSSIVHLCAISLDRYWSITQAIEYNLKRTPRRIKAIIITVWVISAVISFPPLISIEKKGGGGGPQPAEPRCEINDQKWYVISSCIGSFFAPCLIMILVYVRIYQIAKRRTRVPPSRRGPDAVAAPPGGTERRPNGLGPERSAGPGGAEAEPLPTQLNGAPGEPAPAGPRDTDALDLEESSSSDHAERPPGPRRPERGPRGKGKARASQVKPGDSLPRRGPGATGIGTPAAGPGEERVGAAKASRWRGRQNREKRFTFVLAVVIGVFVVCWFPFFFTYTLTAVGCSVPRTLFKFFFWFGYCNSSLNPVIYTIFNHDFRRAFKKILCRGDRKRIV
Nature of the assay: Radioligand binding, adrenergic α2A ([3H]MK-912). The following applies: 0.1 μM compound; read-out: Percentage inhibition of ligand binding, Adrenergic α2A. The method in brief: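 Receptor expressed in Sf9 cells, in 50 mM Tris-HCl pH 7.4, 12.5 mM MgCl2, 2 mM EDTA; compounds incubated with 1 nM [3H]MK-912 for 60 min at 25 °C.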

The target of assay [4] is T4, human recombinant adrenergic α1D receptor (Homo sapiens, UniProt P25100).
T4 construct: expressed in transfected cells; host or cells: HEK-293
T4 sequence (P25100 1-572): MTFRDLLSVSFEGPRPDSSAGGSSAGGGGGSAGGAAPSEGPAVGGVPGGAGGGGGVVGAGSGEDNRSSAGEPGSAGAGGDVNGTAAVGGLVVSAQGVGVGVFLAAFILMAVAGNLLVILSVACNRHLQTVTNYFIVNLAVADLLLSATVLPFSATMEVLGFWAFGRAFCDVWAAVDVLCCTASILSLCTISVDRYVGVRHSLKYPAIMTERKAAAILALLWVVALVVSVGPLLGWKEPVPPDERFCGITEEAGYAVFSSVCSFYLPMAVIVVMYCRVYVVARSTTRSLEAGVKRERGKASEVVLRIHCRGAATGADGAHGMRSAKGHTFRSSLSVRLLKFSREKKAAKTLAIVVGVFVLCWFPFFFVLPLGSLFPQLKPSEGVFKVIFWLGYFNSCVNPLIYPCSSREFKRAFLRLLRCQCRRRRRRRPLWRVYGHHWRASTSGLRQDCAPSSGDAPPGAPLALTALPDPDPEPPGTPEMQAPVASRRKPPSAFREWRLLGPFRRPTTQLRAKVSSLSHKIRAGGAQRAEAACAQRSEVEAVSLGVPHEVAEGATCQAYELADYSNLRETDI
Nature of the assay: Radioligand binding, adrenergic α1D ([3H]Prazosin). The settings on record: 0.1 μM compound; read-out: Percentage inhibition of ligand binding, Adrenergic α1D. As to the method: Compounds were incubated with 0.6 nM [3H]Prazosin for 60 min at 25° C. Non-specific binding was estimated in the presence of 10 μM phentolamine. Receptor proteins were filtered and washed, the filters were then counted to determine [3H]Prazosin specifically bound. […] Biochemical assay results are presented as the percent inhibition of specific binding in Table B1.

With `C/C(=C/n1c2c(c3cc(C)ccc31)CN(C)CC2)c1ccc(C)s1` [compound 277], the inhibition at 0.1 µM was found to be 71% in assay [1], 97% in assay [2], 98% in assay [3] and 84% in assay [4].

Turning to `C/C(=C\n1c2c(c3cc(C)ccc31)CN(C)CC2)c1ccc(C)s1` [compound 278], the inhibition at 0.1 µM came to 62% in assay [1], 98% in assay [2], 93% in assay [3] and 44% in assay [4].

`C/C(=C/n1c2c(c3cc(C)ccc31)CN(C)CC2)c1cnc(N(C)C)nc1` [compound 279]: the inhibition at 0.1 µM amounted to 79% in assay [1], 92% in assay [2], 90% in assay [3] and 93% in assay [4].

Regarding `CSc1ccc(/C(C)=C/n2c3c(c4cc(Cl)ccc42)CN(C)CC3)cc1` [compound 280], the inhibition at 0.1 µM in assay [1] worked out at 76%; in assay [2] it was 98%; in assay [3] it was 97%; in assay [4] it was 65%.

`C/C(=C\n1c2c(c3cc(Cl)ccc31)CN(C)CC2)c1ccc(S(C)(=O)=O)cc1` [compound 281]: the inhibition at 0.1 µM in assay [1] was found to be 67%; in assay [2] it was 90%; in assay [3], 72%; in assay [4], 47%.

On to `C/C(=C\n1c2c(c3cc(C)ccc31)CN(C)CC2)c1ccc2[nH]cnc2c1` [compound 282], for which the inhibition at 0.1 µM in assay [1] amounted to 33%; in assay [2], 101%; in assay [3] it was 75%; in assay [4] it was 30%.

In the case of `C/C(=C\n1c2c(c3cc(C)ccc31)CN(C)CC2)c1ccc2c(ccn2C)c1` [compound 283], the inhibition at 0.1 µM in assay [1] was 63%; in assay [2], 89%; in assay [3] it was 90%; in assay [4], 46%.

In the case of `C/C(=C/n1c2c(c3cc(C)ccc31)CN(C)CC2)c1ccc2ccn(C)c2c1` [compound 284], the inhibition at 0.1 µM is 83% in assay [1], 76% in assay [2], 97% in assay [3] and 81% in assay [4].

For `C/C(=C\n1c2c(c3cc(C)ccc31)CN(C)CC2)c1cc(C)cs1` [compound 285], the inhibition at 0.1 µM in assay [1] turned out to be 63%; in assay [2], 97%; in assay [3], 98%; in assay [4] it was 71%.

`C/C(=C/n1c2c(c3cc(C)ccc31)CN(C)CC2)c1cccc2ccccc12` [compound 286]: the inhibition at 0.1 µM in assay [1] stood at 26%; in assay [2] it was 60%; in assay [3] it was 80%; in assay [4] it was 19%.

With `C/C(=C/n1c2c(c3cc(C)ccc31)CN(C)CC2)c1sccc1C` [compound 287], the inhibition at 0.1 µM in assay [1] turned out to be 81%; in assay [2] it was 98%; in assay [3], 99%; in assay [4] it was 69%.

In the case of `C/C(=C/n1c2c(c3cc(C)ccc31)CN(C)CC2)c1cccc2[nH]ncc12` [compound 290], the inhibition at 0.1 µM amounted to 90% in assay [1], 96% in assay [2], 80% in assay [3] and 79% in assay [4].

As to `C/C(=C/n1c2c(c3cc(C)ccc31)CN(C)CC2)c1cc(C)cs1` [compound 291], the inhibition at 0.1 µM in assay [1] is 88%; in assay [2] it was 105%; in assay [3], 102%; in assay [4], 85%.

As for `C/C(=C\n1c2c(c3cc(C)ccc31)CN(C)CC2)c1cncc2ccccc12` [compound 292], the inhibition at 0.1 µM worked out at 13% in assay [1], 104% in assay [2], 58% in assay [3] and 23% in assay [4].

Turning to `C/C(=C/n1c2c(c3cc(C)ccc31)CN(C)CC2)c1cc2ccccc2s1` [compound 293], the inhibition at 0.1 µM was determined as 73% in assay [1], 93% in assay [2], 96% in assay [3] and 82% in assay [4].

As for `Cc1ccc2c(c1)c1c(n2CCc2csc3ccccc23)CCN(C)C1` [compound 294, 5-(2-benzo[b]thiophen-3-yl-ethyl)-2,8-dimethyl-2,3,4,5-tetrahydro-1H-pyrido[4,3-b]indole], the inhibition at 0.1 µM turned out to be 76% in assay [1], 41% in assay [2], 94% in assay [3] and 39% in assay [4].

With `CSc1cccc(/C(C)=C/n2c3c(c4cc(Cl)ccc42)CN(C)CC3)c1` [compound 295], the inhibition at 0.1 µM came out at 15% in assay [1], 79% in assay [2], 69% in assay [3] and 7% in assay [4].

`C/C(=C\n1c2c(c3cc(Cl)ccc31)CN(C)CC2)c1cccc(S(C)(=O)=O)c1` [compound 296]: the inhibition at 0.1 µM turned out to be 20% in assay [1], 70% in assay [2], 60% in assay [3] and 33% in assay [4].

On to `Cc1ccc2c(c1)c1c(n2CCc2cccc(C)n2)CCN(C)C1` [compound 297, 2,8-dimethyl-5-[2-(6-methyl-pyridin-2-yl)-ethyl]-2,3,4,5-tetrahydro-1H-pyrido[4,3-b]indole], for which the inhibition at 0.1 µM in assay [1] came to 69%; in assay [2], 46%; in assay [3], 50%; in assay [4], 36%.

As a reminder, the inhibition is the relative decrease from the control value, in per cent.
